Type in all cases: in vivo
One test concerns Erysiphe graminis. In words: Powdery Mildew of Wheat (Erysiphe graminis--ERYSGT). The note with it: wheat (cultivar Monon), 100 ppm spray to run off, inoculated after 24 hours; for pest or weed control at 100 ppm: Blumeria graminis, 1DP, read-out: control of plant disease, ERYSGT 1DP. The protocol: (§1) Compound Formulation: Compound formulation was accomplished by dissolving technical materials in acetone, with serial dilutions then made in acetone to obtain desired rates. Final treatment volumes were obtained by adding nine volumes 0.05% aqueous Tween-20 or Triton X-100, depending upon the pathogen.
Powdery Mildew of Wheat (Erysiphe graminis--ERYSGT): Wheat (cultivar Monon) was grown in a soilless peat-based potting mixture (Metromix) until the seedlings were 1-2 leaf (BBCH 12). These plants were then sprayed to run off with the test compound at a rate of 100 ppm. After 24 hours the test plants were inoculated with Erysiphe graminis by dusting spores from stock plants onto the test plants. The plants were then transferred to the greenhouse until disease developed on the untreated control plants.
(§2) the following table presents the activity of typical compounds of the present invention when evaluated in these experiments. The effectiveness of the test compounds in controlling disease was rated using the following scale: […]

The next test concerns Leptosphaeria nodorum. As to the kind of experiment: Glume blotch of wheat (Leptosphaeria nodorum--LEPTNO). The note with it: wheat (cultivar Monon), 100 ppm spray to run off, inoculated after 24 hours; for pest or weed control at 100 ppm: Parastagonospora nodorum, 1DP, read-out: control of plant disease, LEPTNO 1DP. The protocol: as §1
Glume blotch of wheat (Leptosphaeria nodorum--LEPTNO): Wheat (cultivar Monon) was grown from seed in a soilless peat-based potting mixture (Metromix) until the seedlings were 1-2 leaf (BBCH 12). These plants were then sprayed to run off with the test compound at a rate of 100 ppm. After 24 hours the test plants were inoculated with an aqueous spore suspension of Leptosphaeria nodorum. The plants were then transferred to the greenhouse until disease developed on the untreated control plants.
as §2

The next test concerns Phytophthora infestans. As to the kind of experiment: whole plant or invertebrate. The note with it: for pest or weed control at 100 ppm: Phytophthora infestans, 24 h, read-out: control of plant disease, PHYTIN 1DP; for control of plant disease, PHYTIN 1DP: tomatoes (cultivar Rutgers), 100 ppm spray to run off, inoculated after 24 hours.
Another test concerns Puccinia recondita. In words: Brown rust (Puccinia recondita--PUCCRT). The following applies: wheat (cultivar Monon), 100 ppm spray to run off, inoculated after 24 hours; for pest or weed control at 100 ppm: Puccinia recondita, 1DP, read-out: control of plant disease, PUCCRT 1DP. On the procedure: as §1
Brown rust (Puccinia recondita--PUCCRT): Wheat (cultivar Monon) was grown from seed in a soilless peat-based potting mixture (Metromix) until the seedlings were […]). These plants were then sprayed to run off with the test compound at a rate of 100 ppm. After 24 hours the test plants were inoculated with an aqueous spore suspension of Puccinia recondita. The plants were then transferred to the greenhouse until disease developed on the untreated control plants.
as §2

On to `CNC(=O)C(=NOC)c1ccccc1COc1ncc(-c2noc(-c3cccs3)n2)cc1Cl` [Example 20], for which the pest or weed control at 100 ppm in the test with Erysiphe graminis fell in the range of 75 to 100%; in the test on Leptosphaeria nodorum, 0 to 24%; in the test on Phytophthora infestans, 75 to 100%; in the test on Puccinia recondita, 75 to 100%.
In the case of `CNC(=O)C(=NOC)c1ccccc1COc1ncc(-c2noc(C3CC3)n2)cc1Cl` [Example 21], the pest or weed control at 100 ppm with Erysiphe graminis, in the test with Leptosphaeria nodorum, in the test with Phytophthora infestans and in the test on Puccinia recondita was 75 to 100% throughout.
For `CCC=Cc1nc(-c2cnc(OCc3ccccc3C(=NOC)C(=O)NC)c(Cl)c2)no1` [Example 22], the pest or weed control at 100 ppm lay in the range of 75 to 100% with Erysiphe graminis, 75 to 100% in the test on Leptosphaeria nodorum, 0 to 24% with Phytophthora infestans and 75 to 100% in the test with Puccinia recondita.
In the case of `CNC(=O)C(=NOC)c1ccccc1COc1ncc(-c2noc(COC)n2)cc1Cl` [Example 23], the pest or weed control at 100 ppm with Erysiphe graminis fell in the range of 75 to 100%; in the test with Leptosphaeria nodorum, 25 to 74%; in the test with Phytophthora infestans it was 0 to 24%; with Puccinia recondita, 75 to 100%.
As for `CNC(=O)C(=NOC)c1ccccc1COc1ncc(-c2noc(CSc3ccccc3)n2)cc1Cl` [Example 24], the pest or weed control at 100 ppm in the test with Erysiphe graminis lay within 0 to 24%; with Leptosphaeria nodorum, 75 to 100%; with Phytophthora infestans, 75 to 100%; in the test with Puccinia recondita, 75 to 100%.
Regarding `CNC(=O)C(=NOC)c1ccccc1COc1ccc(-c2noc(COC)n2)cn1` [Example 25], the pest or weed control at 100 ppm with Erysiphe graminis is 75 to 100%; with Leptosphaeria nodorum, 25 to 74%; in the test with Phytophthora infestans, 75 to 100%; in the test on Puccinia recondita, 75 to 100%.
Consider `CNC(=O)C(=NOC)c1ccccc1COc1ncc(-c2noc(CCCl)n2)cc1Cl` [Example 26], for which the pest or weed control at 100 ppm in the test on Erysiphe graminis, with Leptosphaeria nodorum, in the test with Phytophthora infestans and with Puccinia recondita was 75 to 100% in each case.
Consider `CNC(=O)C(=NOC)c1cccc(F)c1COc1ncc(-c2noc(C(C)(C)C)n2)cc1Cl` [Example 27], for which, in the test with Erysiphe graminis, the “control of plant disease, ERYSGT 1DP” value is on record as “++ (75-100% control of plant disease)”. Further, in the test with Leptosphaeria nodorum, the “control of plant disease, LEPTNO 1DP” value is “++ (75-100% control of plant disease)”. The “control of plant disease, PHYTIN 1DP” value in the test on Phytophthora infestans is “- (0-24% control of plant disease)”. For the same compound, the “control of plant disease, PUCCRT 1DP” value in the test on Puccinia recondita was “++ (75-100% control of plant disease)”.
Turning to `CNC(=O)C(=NOC)c1ccccc1COc1ccc(-c2noc(CSc3ccccc3)n2)cn1` [Example 28], the pest or weed control at 100 ppm with Erysiphe graminis, with Leptosphaeria nodorum, with Phytophthora infestans and with Puccinia recondita was 75 to 100% in each case.
For the compound `CNC(=O)C(=NOC)c1cccc(F)c1COc1ncc(-c2noc(C(F)(F)F)n2)cc1Cl` [Example 32], the “control of plant disease, ERYSGT 1DP” value in the test on Erysiphe graminis is “++ (75-100% control of plant disease)”. The “control of plant disease, LEPTNO 1DP” value in the test on Leptosphaeria nodorum is on record as “+ (25-74% control of plant disease)”. Further, the “control of plant disease, PHYTIN 1DP” value in the test with Phytophthora infestans is given as “- (0-24% control of plant disease)”. Moreover, in the test with Puccinia recondita, the “control of plant disease, PUCCRT 1DP” value is reported as “++ (75-100% control of plant disease)”.
With `CNC(=O)C(=NOC)c1ccc(C)cc1COc1ncc(-c2noc(C(F)(F)F)n2)cc1Cl` [Example 33], the “control of plant disease, ERYSGT 1DP” value with Erysiphe graminis is “++ (75-100% control of plant disease)”. For the same compound, in the test on Leptosphaeria nodorum, the “control of plant disease, LEPTNO 1DP” value is “++ (75-100% control of plant disease)”. Besides, the “control of plant disease, PHYTIN 1DP” value with Phytophthora infestans was “++ (75-100% control of plant disease)”. The “control of plant disease, PUCCRT 1DP” value in the test with Puccinia recondita is recorded as “++ (75-100% control of plant disease)”.
Consider `CNC(=O)C(=NOC)c1cccc(Cl)c1COc1ncc(-c2noc(C(F)(F)F)n2)cc1Cl` [Example 34], for which the “control of plant disease, ERYSGT 1DP” value with Erysiphe graminis was “++ (75-100% control of plant disease)”. In the test with Leptosphaeria nodorum, the “control of plant disease, LEPTNO 1DP” value is listed as “++ (75-100% control of plant disease)”. Further, in the test on Phytophthora infestans, the “control of plant disease, PHYTIN 1DP” value is recorded as “- (0-24% control of plant disease)”. Besides, the “control of plant disease, PUCCRT 1DP” value in the test on Puccinia recondita is reported as “++ (75-100% control of plant disease)”.
For the compound `CNC(=O)C(=NOC)c1cccc(C)c1COc1ncc(-c2noc(C(F)(F)F)n2)cc1Cl` [Example 35], the “control of plant disease, ERYSGT 1DP” value in the test with Erysiphe graminis was “++ (75-100% control of plant disease)”. Moreover, the “control of plant disease, LEPTNO 1DP” value with Leptosphaeria nodorum was “++ (75-100% control of plant disease)”. Also, the “control of plant disease, PHYTIN 1DP” value with Phytophthora infestans is on record as “- (0-24% control of plant disease)”. Also, in the test with Puccinia recondita, the “control of plant disease, PUCCRT 1DP” value is reported as “++ (75-100% control of plant disease)”.
Turning to `CCc1nc(-c2cnc(OCc3ccccc3C(=NOC)C(=O)NC)c(Cl)c2)no1` [Example 36], the pest or weed control at 100 ppm is 75 to 100% in the test with Erysiphe graminis, 75 to 100% in the test on Leptosphaeria nodorum, 0 to 24% with Phytophthora infestans and 75 to 100% with Puccinia recondita.
As for `CNC(=O)C(=NOC)c1ccccc1COc1ncc(-c2noc(C(C)C)n2)cc1Cl` [Example 37], the pest or weed control at 100 ppm with Erysiphe graminis lay in the range of 75 to 100%; with Leptosphaeria nodorum, 75 to 100%; in the test with Phytophthora infestans, 0 to 24%; in the test on Puccinia recondita, 75 to 100%.
For `CNC(=O)C(=NOC)c1ccccc1COc1ncc(-c2cc(C(C)C)on2)cc1Cl` [Example 38], the pest or weed control at 100 ppm was 75 to 100% in the test on Erysiphe graminis, 75 to 100% in the test with Leptosphaeria nodorum, 0 to 24% with Phytophthora infestans and 75 to 100% in the test on Puccinia recondita.
For the compound `CCc1cc(-c2cnc(OCc3ccccc3C(=NOC)C(=O)NC)c(Cl)c2)no1` [Example 39], the pest or weed control at 100 ppm lay in the range of 75 to 100% in the test on Erysiphe graminis, 75 to 100% in the test with Leptosphaeria nodorum, 0 to 24% in the test with Phytophthora infestans and 75 to 100% in the test with Puccinia recondita.
Turning to `CCOc1cc(-c2cnc(OCc3ccccc3C(=NOC)C(=O)NC)c(Cl)c2)no1` [Example 40], the pest or weed control at 100 ppm in the test with Erysiphe graminis lay in the range of 75 to 100%; in the test with Leptosphaeria nodorum, 0 to 24%; in the test on Phytophthora infestans, 25 to 74%; in the test with Puccinia recondita, 75 to 100%.
As to `CNC(=O)C(=NOC)c1ccccc1COc1ncc(-c2cc(C(C)(C)C)on2)cc1Cl` [Example 41], the pest or weed control at 100 ppm was in the range of 75 to 100% in the test on Erysiphe graminis, 75 to 100% in the test with Leptosphaeria nodorum, 0 to 24% in the test with Phytophthora infestans and 75 to 100% with Puccinia recondita.
Turning to `CNC(=O)C(=NOC)c1ccccc1COc1ccc(-c2cc(C(C)C)on2)cn1` [Example 42], the pest or weed control at 100 ppm was in the range of 75 to 100% in the test with Erysiphe graminis, 0 to 24% with Leptosphaeria nodorum, 75 to 100% in the test with Phytophthora infestans and 75 to 100% with Puccinia recondita.
For the compound `CNC(=O)C(=NOC)c1ccccc1COc1ccc(-c2cc(C(C)(C)C)on2)cn1` [Example 43], the pest or weed control at 100 ppm with Erysiphe graminis, in the test on Leptosphaeria nodorum, with Phytophthora infestans and in the test with Puccinia recondita was 75 to 100% in each case.
Consider `CNC(=O)C(=NOC)c1ccccc1COc1ncc(-c2nc(C(C)(C)C)no2)cc1Cl` [Example 47, Benzeneacetamide, 2-[[[3-chloro-5-(3-t-butyl-1,2,4-oxadiazol-5-yl)-2-pyridinyl]oxy]methyl]-α-(methoxyimino)-N-methyl-], for which the pest or weed control at 100 ppm fell in the range of 75 to 100% with Erysiphe graminis, 75 to 100% with Leptosphaeria nodorum, 0 to 24% in the test with Phytophthora infestans and 75 to 100% in the test on Puccinia recondita.
For `CNC(=O)C(=NOC)c1ccccc1COc1ncc(-c2nc(-c3ccccc3)no2)cc1Cl` [Example 48], the pest or weed control at 100 ppm fell in the range of 75 to 100% in the test on Erysiphe graminis, 25 to 74% with Leptosphaeria nodorum, 75 to 100% in the test with Phytophthora infestans and 75 to 100% in the test with Puccinia recondita.
For the compound `CNC(=O)C(=NOC)c1ccccc1COc1ncc(-c2nc(C)no2)cc1Cl` [Example 49, Benzeneacetamide, 2-[[[3-chloro-5-(3-methyl-1,2,4-oxadiazol-5-yl)-2-pyridinyl]oxy]methyl]-α-(methoxyimino)-N-methyl-], the pest or weed control at 100 ppm was in the range of 75 to 100% with Erysiphe graminis, 75 to 100% in the test with Leptosphaeria nodorum, 0 to 24% with Phytophthora infestans and 75 to 100% with Puccinia recondita.
Regarding `CCOC(=O)c1nc(-c2cnc(OCc3ccccc3C(=NOC)C(=O)NC)c(C)c2)oc1C` [Example 52, Benzeneacetamide, 2-[[[3-methyl-5-(4-ethoxycarbonyl-5-methyl-oxazol-2-yl)-2-pyridinyl]oxy]methyl]-α-(methoxyimino)-N-methyl-], the pest or weed control at 100 ppm in the test on Erysiphe graminis fell in the range of 25 to 74%; in the test on Leptosphaeria nodorum, 25 to 74%; in the test with Phytophthora infestans, 75 to 100%; with Puccinia recondita it was 75 to 100%.

The record behind these values is patent US6133294A (priority 1999, dated 2000).
